{"source": "patent US20190320688A1", "about": "“COMPOSITIONS FOR PREVENTING AND RELIEVING HANGOVER & LIVER DAMAGE WHICH OCCUR DUE TO ALCOHOL CONSUMPTION” (priority 2018, published 2019)", "origin": "cited, not measured here", "details": "biological activities listed in background table"}
{"substance": "Methylcurcumin", "values": [{"measurement": "Activity", "value": "L. amazonensis"}]}
